What was measured:
[1] = biological target: Cyclin-dependent kinase 8 ; CDK8 ; P49336 (Homo sapiens, UniProt P49336); test: biochemical; parameters: species or system human cell line lysate
[2] = biological target: Mast/stem cell growth factor receptor Kit ; KIT ; P10721 (Homo sapiens, UniProt P10721); test: biochemical; parameters: species or system human cell line lysate
[3] = biological target: Cyclin-dependent kinase 4 ; CDK4 ; P11802 (Homo sapiens, UniProt P11802); test: biochemical; parameters: species or system human cell line lysate
[4] = biological target: Cyclin-dependent kinase 13 ; CDK13 ; Q14004 (Homo sapiens, UniProt Q14004); test: biochemical; parameters: species or system human cell line lysate
[5] = biological target: MAP kinase-interacting serine/threonine-protein kinase 1 ; MKNK1 ; Q9BUB5 (Homo sapiens, UniProt Q9BUB5); parameters: species or system mixed lysate of K562, MV4-11, THP-1, NCI-H1155; details: binder
[6] = biological target: Tyrosine-protein kinase CSK ; CSK ; P41240 (Homo sapiens, UniProt P41240); parameters: species or system mixed lysate of K562, MV4-11, THP-1, NCI-H1155; details: binder
[7] = biological target: Dual specificity testis-specific protein kinase 1 ; TESK1 ; Q15569 (Homo sapiens, UniProt Q15569); parameters: species or system mixed lysate of K562, MV4-11, THP-1, NCI-H1155; details: DIA-MS residual binding; binder
[8] = biological target: Isoform 2 of Tyrosine-protein kinase Lyn ; LYN-2 ; P07948-2 (Homo sapiens, UniProt P07948); parameters: species or system mixed lysate of K562, MV4-11, THP-1, NCI-H1155; details: DIA-MS residual binding; binder
[9] = biological target: Peripheral plasma membrane protein CASK ; CASK ; O14936 (Homo sapiens, UniProt O14936); parameters: species or system mixed lysate of K562, MV4-11, THP-1, NCI-H1155; details: DIA-MS residual binding; binder
[10] = biological target: Isoform 3 of Membrane-associated tyrosine- and threonine-specific cdc2 ; PKMYT1-3 ; Q99640-3 (Homo sapiens, UniProt Q99640); parameters: species or system mixed lysate of K562, MV4-11, THP-1, NCI-H1155; details: binder
[11] = biological target: Tyrosine-protein kinase Lyn ; LYN ; P07948 (Homo sapiens, UniProt P07948); parameters: species or system mixed lysate of K562, MV4-11, THP-1, NCI-H1155; details: DIA-MS residual binding; binder
[12] = biological target: T1, Discoidin domain-containing receptor 2 ; DDR2 ; Q16832 (Homo sapiens, UniProt Q16832); parameters: species or system mixed lysate of K562, MV4-11, THP-1, NCI-H1155; details: binder
T1 sequence (Q16832 1-855): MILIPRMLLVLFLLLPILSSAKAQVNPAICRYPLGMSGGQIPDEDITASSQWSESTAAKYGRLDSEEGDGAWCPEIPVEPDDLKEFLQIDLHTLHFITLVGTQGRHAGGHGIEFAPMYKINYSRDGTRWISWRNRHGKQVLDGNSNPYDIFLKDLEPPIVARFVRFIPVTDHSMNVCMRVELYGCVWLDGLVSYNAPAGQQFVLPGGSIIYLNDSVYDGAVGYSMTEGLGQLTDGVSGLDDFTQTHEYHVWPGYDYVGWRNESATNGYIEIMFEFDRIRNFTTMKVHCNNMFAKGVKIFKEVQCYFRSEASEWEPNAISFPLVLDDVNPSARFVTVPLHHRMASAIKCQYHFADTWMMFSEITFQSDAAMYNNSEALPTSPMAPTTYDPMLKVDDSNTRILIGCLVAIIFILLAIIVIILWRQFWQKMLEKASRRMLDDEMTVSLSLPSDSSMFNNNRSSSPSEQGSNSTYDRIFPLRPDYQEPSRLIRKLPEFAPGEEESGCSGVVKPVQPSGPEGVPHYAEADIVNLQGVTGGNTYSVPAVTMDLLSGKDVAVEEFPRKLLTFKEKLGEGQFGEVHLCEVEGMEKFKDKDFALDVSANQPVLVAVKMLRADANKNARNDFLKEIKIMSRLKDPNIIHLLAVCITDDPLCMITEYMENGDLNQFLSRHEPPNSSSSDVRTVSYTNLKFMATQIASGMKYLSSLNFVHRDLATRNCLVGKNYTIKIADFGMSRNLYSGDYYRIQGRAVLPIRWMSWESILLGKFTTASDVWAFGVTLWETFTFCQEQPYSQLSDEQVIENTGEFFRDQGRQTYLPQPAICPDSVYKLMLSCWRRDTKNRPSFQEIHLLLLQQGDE

[13] = biological target: Isoform 3 of Serine/threonine-protein kinase SIK3 ; SIK3-7 ; Q9Y2K2-7 (Homo sapiens, UniProt Q9Y2K2); parameters: species or system mixed lysate of K562, MV4-11, THP-1, NCI-H1155; details: DIA-MS residual binding; binder
[14] = biological target: Ephrin type-A receptor 5 ; EPHA5 ; P54756 (Homo sapiens, UniProt P54756); parameters: species or system mixed lysate of K562, MV4-11, THP-1, NCI-H1155; details: DIA-MS residual binding; binder

Chain of Cyclin-dependent kinase 4 ; CDK4 ; P11802 (P11802 whole entry, one chain of several): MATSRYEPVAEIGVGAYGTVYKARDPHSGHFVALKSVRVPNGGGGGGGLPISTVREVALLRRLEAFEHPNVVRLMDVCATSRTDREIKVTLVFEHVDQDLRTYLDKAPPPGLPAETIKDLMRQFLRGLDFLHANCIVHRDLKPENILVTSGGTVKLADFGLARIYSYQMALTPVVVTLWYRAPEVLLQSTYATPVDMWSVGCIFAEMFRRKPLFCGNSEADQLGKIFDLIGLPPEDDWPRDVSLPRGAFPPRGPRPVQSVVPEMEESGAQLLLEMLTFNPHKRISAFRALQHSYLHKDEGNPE
Chain of Cyclin-dependent kinase 8 ; CDK8 ; P49336 (P49336 whole entry, one chain of several): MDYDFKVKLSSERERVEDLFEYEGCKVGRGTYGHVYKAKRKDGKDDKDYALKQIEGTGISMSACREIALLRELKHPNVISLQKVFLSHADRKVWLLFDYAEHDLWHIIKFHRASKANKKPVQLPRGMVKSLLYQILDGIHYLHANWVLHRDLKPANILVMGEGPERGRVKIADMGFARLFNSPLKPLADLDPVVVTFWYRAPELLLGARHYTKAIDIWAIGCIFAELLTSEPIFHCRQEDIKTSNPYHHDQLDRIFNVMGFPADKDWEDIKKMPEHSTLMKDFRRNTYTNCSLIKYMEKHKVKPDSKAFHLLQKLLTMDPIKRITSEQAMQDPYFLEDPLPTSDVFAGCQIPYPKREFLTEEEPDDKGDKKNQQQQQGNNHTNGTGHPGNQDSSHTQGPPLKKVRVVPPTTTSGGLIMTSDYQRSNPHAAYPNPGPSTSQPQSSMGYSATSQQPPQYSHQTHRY
Chain of Cyclin-dependent kinase 13 ; CDK13 ; Q14004 (Q14004 whole entry, one chain of several): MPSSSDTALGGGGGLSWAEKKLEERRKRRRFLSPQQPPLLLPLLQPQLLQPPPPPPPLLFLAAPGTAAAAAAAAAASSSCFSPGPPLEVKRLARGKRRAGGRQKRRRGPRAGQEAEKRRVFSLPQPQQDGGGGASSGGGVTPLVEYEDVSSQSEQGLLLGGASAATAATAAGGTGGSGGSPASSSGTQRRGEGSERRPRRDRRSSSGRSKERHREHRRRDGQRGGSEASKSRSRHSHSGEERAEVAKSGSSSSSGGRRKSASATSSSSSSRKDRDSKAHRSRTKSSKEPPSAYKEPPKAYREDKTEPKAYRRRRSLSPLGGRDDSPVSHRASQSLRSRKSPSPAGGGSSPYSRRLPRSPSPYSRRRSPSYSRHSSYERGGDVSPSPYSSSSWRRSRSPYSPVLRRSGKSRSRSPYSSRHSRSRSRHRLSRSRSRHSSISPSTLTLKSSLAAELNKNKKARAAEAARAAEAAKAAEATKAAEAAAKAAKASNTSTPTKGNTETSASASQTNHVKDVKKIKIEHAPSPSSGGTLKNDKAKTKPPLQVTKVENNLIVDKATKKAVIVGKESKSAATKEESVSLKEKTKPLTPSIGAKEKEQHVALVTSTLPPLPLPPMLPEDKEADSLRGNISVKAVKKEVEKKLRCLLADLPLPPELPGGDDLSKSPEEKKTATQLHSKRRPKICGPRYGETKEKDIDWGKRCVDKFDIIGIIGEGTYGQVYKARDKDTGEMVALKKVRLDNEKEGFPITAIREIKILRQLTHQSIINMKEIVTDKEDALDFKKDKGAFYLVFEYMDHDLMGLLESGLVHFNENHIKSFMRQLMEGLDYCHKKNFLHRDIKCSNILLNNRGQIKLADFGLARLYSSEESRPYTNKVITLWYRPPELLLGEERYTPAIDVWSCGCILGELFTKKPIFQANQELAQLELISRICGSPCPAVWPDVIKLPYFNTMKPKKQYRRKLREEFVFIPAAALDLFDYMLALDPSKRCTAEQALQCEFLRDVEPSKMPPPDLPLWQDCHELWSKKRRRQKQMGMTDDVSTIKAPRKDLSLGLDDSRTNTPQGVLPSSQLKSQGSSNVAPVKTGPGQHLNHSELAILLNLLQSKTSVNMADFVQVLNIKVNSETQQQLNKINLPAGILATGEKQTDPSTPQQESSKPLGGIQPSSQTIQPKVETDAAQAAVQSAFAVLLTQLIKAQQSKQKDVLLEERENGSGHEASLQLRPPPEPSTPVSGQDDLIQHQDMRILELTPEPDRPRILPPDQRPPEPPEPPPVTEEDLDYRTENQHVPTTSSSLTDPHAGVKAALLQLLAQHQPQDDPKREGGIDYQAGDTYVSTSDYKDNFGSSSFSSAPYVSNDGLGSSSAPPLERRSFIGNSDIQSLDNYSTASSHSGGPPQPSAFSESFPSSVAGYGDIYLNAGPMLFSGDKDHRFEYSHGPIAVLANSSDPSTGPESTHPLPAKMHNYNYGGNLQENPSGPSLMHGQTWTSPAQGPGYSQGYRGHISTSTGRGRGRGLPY
Chain of Mast/stem cell growth factor receptor Kit ; KIT ; P10721 (P10721 whole entry, one chain of several): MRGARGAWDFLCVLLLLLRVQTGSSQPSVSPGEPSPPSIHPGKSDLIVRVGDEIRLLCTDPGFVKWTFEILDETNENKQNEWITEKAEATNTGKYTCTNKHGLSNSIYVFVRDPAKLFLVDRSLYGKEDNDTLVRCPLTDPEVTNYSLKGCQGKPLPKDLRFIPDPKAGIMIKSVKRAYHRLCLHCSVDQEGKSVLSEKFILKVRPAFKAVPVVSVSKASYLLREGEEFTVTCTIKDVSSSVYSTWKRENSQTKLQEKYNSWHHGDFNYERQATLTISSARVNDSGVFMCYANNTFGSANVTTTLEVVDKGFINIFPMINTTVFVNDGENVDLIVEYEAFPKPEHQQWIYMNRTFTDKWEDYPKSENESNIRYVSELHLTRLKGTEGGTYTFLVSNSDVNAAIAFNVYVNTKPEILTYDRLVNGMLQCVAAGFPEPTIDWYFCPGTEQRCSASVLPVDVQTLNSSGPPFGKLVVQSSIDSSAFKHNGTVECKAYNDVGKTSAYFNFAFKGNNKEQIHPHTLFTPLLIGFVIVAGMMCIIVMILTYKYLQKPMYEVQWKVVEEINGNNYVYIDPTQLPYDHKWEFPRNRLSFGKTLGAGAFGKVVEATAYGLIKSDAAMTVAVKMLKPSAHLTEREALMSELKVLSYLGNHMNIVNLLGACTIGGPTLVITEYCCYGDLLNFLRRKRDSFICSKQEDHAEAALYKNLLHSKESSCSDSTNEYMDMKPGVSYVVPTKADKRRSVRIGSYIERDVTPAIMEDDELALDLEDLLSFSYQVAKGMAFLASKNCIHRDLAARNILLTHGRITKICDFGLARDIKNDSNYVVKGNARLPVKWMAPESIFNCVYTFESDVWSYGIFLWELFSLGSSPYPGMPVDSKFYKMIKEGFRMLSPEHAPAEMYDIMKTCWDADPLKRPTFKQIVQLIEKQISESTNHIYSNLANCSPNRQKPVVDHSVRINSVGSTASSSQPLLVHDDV
Chain of Peripheral plasma membrane protein CASK ; CASK ; O14936 (O14936 whole entry, canonical isoform): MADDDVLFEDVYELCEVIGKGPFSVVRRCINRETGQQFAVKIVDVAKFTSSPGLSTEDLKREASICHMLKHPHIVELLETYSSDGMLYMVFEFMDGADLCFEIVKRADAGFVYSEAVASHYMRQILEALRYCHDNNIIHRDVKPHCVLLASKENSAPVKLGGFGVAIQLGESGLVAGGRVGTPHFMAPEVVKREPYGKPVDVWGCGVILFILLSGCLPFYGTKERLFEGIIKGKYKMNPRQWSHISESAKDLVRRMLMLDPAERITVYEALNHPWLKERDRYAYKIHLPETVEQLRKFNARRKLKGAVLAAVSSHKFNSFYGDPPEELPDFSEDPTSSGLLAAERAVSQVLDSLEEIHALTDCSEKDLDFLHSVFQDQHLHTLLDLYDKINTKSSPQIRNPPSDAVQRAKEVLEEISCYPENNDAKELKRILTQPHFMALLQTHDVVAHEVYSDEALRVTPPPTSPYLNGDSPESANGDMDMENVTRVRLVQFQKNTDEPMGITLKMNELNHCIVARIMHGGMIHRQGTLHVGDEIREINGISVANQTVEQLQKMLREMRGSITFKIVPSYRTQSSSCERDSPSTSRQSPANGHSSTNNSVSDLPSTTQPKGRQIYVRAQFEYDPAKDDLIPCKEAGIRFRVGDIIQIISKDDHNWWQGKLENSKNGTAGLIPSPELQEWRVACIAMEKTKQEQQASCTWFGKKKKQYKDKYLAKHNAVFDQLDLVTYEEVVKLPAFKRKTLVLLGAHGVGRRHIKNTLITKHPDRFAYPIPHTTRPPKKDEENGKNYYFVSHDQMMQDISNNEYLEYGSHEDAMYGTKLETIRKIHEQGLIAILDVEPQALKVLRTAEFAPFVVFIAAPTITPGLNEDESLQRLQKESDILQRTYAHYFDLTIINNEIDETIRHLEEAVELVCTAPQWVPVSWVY
Chain of Dual specificity testis-specific protein kinase 1 ; TESK1 ; Q15569 (Q15569 whole entry, canonical isoform): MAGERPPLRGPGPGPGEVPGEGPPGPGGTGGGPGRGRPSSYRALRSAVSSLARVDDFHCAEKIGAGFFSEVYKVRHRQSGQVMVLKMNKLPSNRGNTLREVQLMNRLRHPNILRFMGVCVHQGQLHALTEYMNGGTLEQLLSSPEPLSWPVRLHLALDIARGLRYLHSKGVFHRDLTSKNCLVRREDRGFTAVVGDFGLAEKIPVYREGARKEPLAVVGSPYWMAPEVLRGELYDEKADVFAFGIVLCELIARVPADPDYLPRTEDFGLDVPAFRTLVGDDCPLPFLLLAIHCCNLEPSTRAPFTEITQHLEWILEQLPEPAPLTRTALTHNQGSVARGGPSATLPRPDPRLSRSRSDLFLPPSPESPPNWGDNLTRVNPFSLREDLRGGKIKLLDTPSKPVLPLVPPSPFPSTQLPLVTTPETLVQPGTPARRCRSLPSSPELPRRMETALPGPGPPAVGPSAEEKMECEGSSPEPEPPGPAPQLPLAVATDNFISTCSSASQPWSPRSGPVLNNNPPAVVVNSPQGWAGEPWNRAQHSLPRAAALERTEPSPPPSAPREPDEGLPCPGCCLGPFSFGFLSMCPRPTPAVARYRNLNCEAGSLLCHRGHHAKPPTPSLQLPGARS

Row | SMILES | IC50 [1] [µM] | IC50 [2] [nM] | IC50 [3] [µM] | IC50 [4] [µM] | DIA-MS / % Intensity (30 µM/DMSO) [5] [%] | DIA-MS / % Intensity (30 µM/DMSO) [6] [%] | DIA-MS / % Intensity (30 µM/DMSO) [7] [%] | DIA-MS / % Intensity (30 µM/DMSO) [8] [%] | DIA-MS / % Intensity (30 µM/DMSO) [9] [%] | DIA-MS / % Intensity (30 µM/DMSO) [10] [%] | DIA-MS / % Intensity (30 µM/DMSO) [11] [%] | DIA-MS / % Intensity (30 µM/DMSO) [12] [%] | DIA-MS / % Intensity (30 µM/DMSO) [13] [%] | DIA-MS / % Intensity (30 µM/DMSO) [14] [%]
1 | COc1cc(F)ccc1-c1ncnc(Nc2cccc(C[S@](C)(=N)=O)c2)n1 [BAY-1143572] | > 10 | 649 | > 10 | > 10 | – | – | – | – | – | – | – | – | – | –
2 | COc1cc(F)ccc1-c1cc(Nc2cc(CS(C)(=N)=O)ccn2)ncc1F (stereo not drawn) [BAY-1251152] | > 10 | > 10000 | > 10 | > 10 | – | – | – | – | – | – | – | – | – | –
3 | Cc1nc(Nc2ncc(C(=O)Nc3c(C)cccc3Cl)s2)cc(N2CCN(CCO)CC2)n1 [dasatinib] | – | – | – | – | 27.84 | 0.9845 | 14.82 | 1.98 | 21.6 | 30.34 | 11.5 | 5.824 | 12.26 | 0.4604

From paper doi:10.1101/2024.08.13.607785v1 (biorxiv, 2024)
